Results published in patent US4220755A, “Fortimicin B derivatives and process for production thereof” (Abbott Laboratories, priority 1976, dated 1980).
Values after ≈ are worked out from the molar mass of the structure shown. Where two headings read alike, the source gives them in different places.

Key:
[1] = Stability in alkaline aqueous conditions; format: physicochemical; settings: for Stability in aqueous solution: free base
Procedure: The stability of 4-N-acylfortimicin B derivatives in aqueous alkaline conditions is poor. […] Therefore, purification of these compounds under basic conditions (for example, column chromatography with Amberlite CG-50, eluting with aqueous ammonia) is not practical.
In contrast with the instability of 4-N-acylfortimicin B derivatives, 4-N-alkylfortimicin B derivatives are so stable that no decomposition occurs even in aqueous barium hydroxide solution at reflux temperature for 18 hours. Therefore, in the case of 4-N-alkylfortimicin B, any substituents can be introduced at 4-N-position of fortimicin B, even though such substituents can not be introduced as the acyl type to such position due to the aforementioned instability.

[2] = in vivo; settings: mouse, iv
Procedure: In this experiment, one group consisting of five ddY-strain mice is used. Test compounds dissolved in 0.2 ml of distilled water for injection are injected intravenously into each animal in 10 seconds. The LD50 is calculated according to the method of Behrens-Karber.

[3] = test system: Klebsiella pneumoniae 8045; experiment: ED50 in infected mice; format: in vivo, ddY-strain mice; settings: 168 h, read-out: ED50 KP
Procedure: (§1) In this experiment, one group consisting of five ddY-strain mice is used. The microorganisms shown below are inoculated into each animal. One hour after the inoculation, test compounds dissolved in distilled water for injection are injected intraperitoneally to test animals by one shot. The test animals are observed one week after the injection, and the ED50 is calculated according to the method of Behrens-Karber.
*^1 KP means Klebsiella pneumoniae 8045. 1.3 × 10^5 cells
are inoculated into each mouse.

[4] = test system: various microorganisms; experiment: Antibacterial activity (general statements); format: cell-based; settings: qualitative statement
Procedure: (§2) Measurement was carried out according to the agar dilution method, using a medium of pH 8.0, or the Japanese Antibiotic Medicament Standard, using a medium of pH 7.2 Units are in mcg/ml.

[5] = test system: Eschericia coli KY4271 ATCC26; experiment: MIC, agar dilution method, pH 8.0; format: cell-based; settings: Escherichia coli, ATCC26; pH 8.0; E. coli KY4271; read-out: Minimum inhibition concentration (MIC), EC
Procedure: as §2
E.C.: Eschericia coli KY4271 ATCC26

[6] = test system: Escherichia coli R19 KY8348; experiment: MIC, agar dilution method, pH 7.2; format: cell-based
Procedure: as §2
(§3) 4: gentamicin, producing acetyltransferase type I.

[7] = test system: Pseudomonas aeruginosa R4 KY8511; experiment: MIC, agar dilution method, pH 7.2; format: cell-based
Procedure: as §2, §3

[8] = test system: Escherichia coli Juhl; experiment: ED50 in infected mice; format: in vivo, ddY-strain mice; settings: ip, 168 h, read-out: ED50 EC
Procedure: as §1
*^2 EC means Escherichia coli Juhl. 2.1 × 10^4 cells are
inoculated into each mouse.

[9] = R19KY8348, pH 7.2, E. coli R19 KY8348, 4**: gentamicin, producing acetyltransferase type I, read-out: Minimum inhibition concentration (MIC)
[10] = R4KY8511, pH 7.2, P. aeruginosa R4 KY8511, 4**: gentamicin, producing acetyltransferase type I, read-out: Minimum inhibition concentration (MIC)

Row | Compound | Stability in aqueous solution ([1]; pH 10, 100° C., 4 hours) | Stability in aqueous solution ([1]; pH 10, room temperature, 2 weeks) | Stability under strongly alkaline conditions [1] | LD50 [2] [mg/kg] | ED50 ([3]; Klebsiella pneumoniae, 8045, ip) [mg/kg] | Antibacterial activity [4] | MIC [5] [µg/mL] | MIC ([6]; R19KY8348, pH 7.2, read-out: Minimum inhibition concentration (MIC)) [µg/mL] | MIC ([7]; R4KY8511, pH 7.2, read-out: Minimum inhibition concentration (MIC)) [µg/mL] | ED50 ([8]; Escherichia coli) [mg/kg] | MIC [6, 9] [µg/mL] | MIC [7, 10] [µg/mL] | ED50 ([3]; ip, mice, intraperitoneal one shot 1 hour after inoculation of Klebsiella pneumoniae 8045 (1.3 × 10^5 cells), sulfate, one week observation) [mg/kg] | ED50 ([8]; mice, intraperitoneal one shot 1 hour after inoculation of Escherichia coli Juhl (2.1 × 10^4 cells), sulfate, one week observation) [mg/kg]
1 | CO[C@H]1[C@@H](O)[C@H](N)[C@@H](O[C@H]2O[C@H]([C@H](C)N)CC[C@H]2N)[C@H](O)[C@@H]1N(C)C(=O)CN [Compound 2, 4-N-glycylfortimicin B, reference compound] | almost completely decomposed | almost completely decomposed | slightly unstable | 330 | 2.06 | have antibacterial activity | 0.16 (≈ 0.395 µM) | > 100 | > 100 | 5.06 | – | – | – | –
2 | CO[C@H]1[C@@H](O)[C@H](N)[C@@H](O[C@H]2O[C@H]([C@H](C)N)CC[C@H]2N)[C@H](O)[C@@H]1N(C)C(=O)CNC(N)=O [Compound 3, 4-N-hydantoylfortimicin B, reference compound] | – | – | slightly unstable | – | – | have antibacterial activity | 0.08 (≈ 0.178 µM) | – | – | – | > 100 | > 100 | – | –
3 | CO[C@H]1[C@@H](O)[C@H](N)[C@@H](O[C@H]2O[C@H]([C@H](C)N)CC[C@H]2N)[C@H](O)[C@@H]1N(C)C[C@@H](O)CCN [Compound 27, 4-N-[(S)-4-amino-2-hydroxybutyl]fortimicin B] | – | – | – | 135 | – | – | 0.16 (≈ 0.367 µM) | – | – | – | > 100 | > 100 | 1.88 | 2.81
